According to US20210114983A1, “Cathepsin C inhibitors” (National Institute of Biological Sciences, Beijing, priority 2018, published 2021):

Target: rhCatC (Cathepsin C) (Homo sapiens, UniProt P53634)
Assay: In Vitro CatC Enzyme Assay
Type: biochemical
Details: read-out: Cat C Enzy (Cathepsin C inhibitory activity, IC50)
Protocol: In Vitro CatC Enzyme Assay
The CatC enzyme assay was performed in black 384-well plate. Firstly, rhCatC (440 nM) was activated by rhCatL (300 nM) in activation buffer (25 mM MES, 5 mM DTT, pH 6.0) at room temperature for 2 h and then activated rhCatC was diluted to 4.4 nM in assay buffer (25 mM MES, 50 mM NaCl, 5 mM DTT, 0.01% (v/v) Triton X100, pH 6.0), 14 μL activated rhCatC and 1 μL compound in 10% DMSO or 10% DMSO were incubated at room temperature for 3 h, and 5 μL substrate (Gly-Phe-AFC) was added to final concentration of 100 μM. After 60 min reaction, the product of the reaction was measured in the Enspire plate reader using Ex λ400 nm and Em λ505 nm for AFC. A standard irreversible CatC inhibitor 10 by AstraZeneca (J. Med. Chem. 2014, 57, 2357-2367) was used as an inhibitor control in the assay.

Chain of rhCatC (Cathepsin C) (P53634 25-134 limits assumed): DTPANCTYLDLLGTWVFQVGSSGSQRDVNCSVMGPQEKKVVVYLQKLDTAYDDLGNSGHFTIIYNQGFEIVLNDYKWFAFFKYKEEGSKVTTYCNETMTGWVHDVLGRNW
Chain of rhCatC (Cathepsin C) (P53634 231-394 limits assumed): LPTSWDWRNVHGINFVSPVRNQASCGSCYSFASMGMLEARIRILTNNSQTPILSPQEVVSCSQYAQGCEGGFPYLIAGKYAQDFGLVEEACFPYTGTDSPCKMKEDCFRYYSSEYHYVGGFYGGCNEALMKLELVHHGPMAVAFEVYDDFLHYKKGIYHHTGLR
Chain of rhCatC (Cathepsin C) (P53634 395-463 limits assumed): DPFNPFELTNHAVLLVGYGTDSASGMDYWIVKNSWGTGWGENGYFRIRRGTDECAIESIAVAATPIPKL

| IC50 | Compound |
| --- | --- |
| 0.003 to 0.3 µM | C=CC(=O)Nc1cc(Oc2nc(Nc3ccc(N4CCC(N(C)C)CC4)cc3OC)ccc2N2CCCCC2)ccc1C [Compound 37, N-(5-((6-((4-(4-(dimethylamino)piperidin-1-yl)-2-methoxyphenyl)amino)-3-(piperidin-1-yl)pyridin-2-yl)oxy)-2-methylphenyl)acrylamide] |
| 0.003 to 0.3 µM | C=CC(=O)Nc1cc(Oc2nc(Nc3ccc(N4CCN(C)CC4)cc3OC)ccc2N2CCOCC2)ccc1C [Compound 30, N-(5-((6-((2-methoxy-4-(4-methylpiperazin-1-yl)phenyl)amino)-3-morpholinopyridin-2-yl)oxy)-2-methylphenyl)acrylamide] |
| 0.003 to 0.3 µM | C=CC(=O)Nc1cc(Oc2nc(Nc3ccc(N4CCN(C)CC4)cc3OC)ccc2N2CCCC2)ccc1C(F)(F)F [Compound 44, N-(5-((6-((2-methoxy-4-(4-methylpiperazin-1-yl)phenyl)amino)-3-(pyrrolidin-1-yl)pyridin-2-yl)oxy)-2-(trifluoromethyl)phenyl)acrylamide] |
| 0.003 to 0.3 µM | C=CC(=O)Nc1cc(Oc2nc(Nc3ccc(N4CCN(C)CC4)cc3OC)ccc2-c2ccccc2)ccc1C [Compound 34, N-(5-((6-((2-methoxy-4-(4-methylpiperazin-1-yl)phenyl)amino)-3-phenylpyridin-2-yl)oxy)-2-methylphenyl)acrylamide] |
| 0.3 to 30 µM | C=CC(=O)Nc1cccc(Oc2nc(Nc3ccc(N4CCN(C)CC4)cc3OC)ccc2N2CCCC2)c1C [Compound 41, N-(3-((6-((2-methoxy-4-(4-methylpiperazin-1-yl)phenyl)amino)-3-(pyrrolidin-1-yl)pyridin-2-yl)oxy)-2-methylphenyl)acrylamide] |

Continued, compound first:

| Compound | IC50 |
| --- | --- |
| C=CC(=O)Nc1cc(Oc2nc(Nc3ccc(N4CCN(C)CC4)cc3OC)ccc2N2CCC(O)C2)ccc1C (stereo not shown) [Compound 31, N-(5-((3-(3-hydroxypyrrolidin-1-yl)-6-((2-methoxy-4-(4-methylpiperazin-1-yl)phenyl)amino)pyridin-2-yl)oxy)-2-methylphenyl)acrylamide] | 0.003 to 0.3 µM |
| C=CC(=O)Nc1cccc(Oc2cccc(Nc3ccc(N4CCN(C)CC4)cc3OC)n2)c1 [Compound 21, N-(3-((6-((2-methoxy-4-(4-methylpiperazin-1-yl)phenyl)amino)pyridin-2-yl)oxy)phenyl)acrylamide] | 0.3 to 30 µM |
| C=CC(=O)Nc1cccc(Oc2nc(Nc3ccc(N4CCN(C)CC4)cc3OC)ccc2C(F)(F)F)c1 [Compound 16, N-(3-((6-((2-methoxy-4-(4-methylpiperazin-1-yl)phenyl)amino)-3-(trifluoromethyl)pyridin-2-yl)oxy)phenyl)acrylamide] | 0.3 to 30 µM |
| C=CC(=O)Nc1cc(Oc2nc(Nc3ccc(N4CCN(C)CC4)cc3)ccc2N2CCCCC2)ccc1C [Compound 38, N-(2-methyl-5-((6-((4-(4-methylpiperazin-1-yl)phenyl)amino)-3-(piperidin-1-yl)pyridin-2-yl)oxy)phenyl)acrylamide] | 0.003 to 0.3 µM |
| C=CC(=O)Nc1ccc(C)c(Oc2nc(Nc3ccc(N4CCN(C)CC4)cc3OC)ccc2N2CCCC2)c1 [Compound 42, N-(3-((6-((2-methoxy-4-(4-methylpiperazin-1-yl)phenyl)amino)-3-(pyrrolidin-1-yl)pyridin-2-yl)oxy)-4-methylphenyl)acrylamide] | 0.3 to 30 µM |
| C=CC(=O)Nc1cccc(Oc2nc(Nc3ccc(N4CCC[C@@H](N)C4)cc3OC)ccc2Cl)c1 [Compound 9, (R)-N-(3-((6-((4-(3-aminopiperidin-1-yl)-2-methoxyphenyl)amino)-3-chloropyridin-2-yl)oxy)phenyl)acrylamide] | 0.3 to 30 µM |
| C=CC(=O)Nc1cccc(Oc2cccc(Nc3ccc(N4CCN(C)CC4)cc3)n2)c1 [Compound 5, N-(3-((6-((4-(4-methylpiperazin-1-yl)phenyl)amino)pyridin-2-yl)oxy)phenyl)acrylamide] | 0.3 to 30 µM |
| C=CC(=O)Nc1cccc(Oc2nc(Nc3ccc(N4CCN(C)CC4)cc3OC)ccc2Cl)c1 [Compound 1, N-(3-((3-chloro-6-((2-methoxy-4-(4-methylpiperazin-1-yl)phenyl)amino)pyridin-2-yl)oxy)phenyl)acrylamide] | 0.3 to 30 µM |
